A short description of data set [1]: Cytotoxicity against human HepG2 cells assessed as inhibition of cell growth incubated for 72 hrs by CCK8 assay. Format: toxicity, cell-based. For orientation: Formazan colour is commonly taken as a measure of viable cells.
The nature of data set [2]: Cytotoxicity against HEK293T cells assessed as inhibition of cell growth incubated for 72 hrs by CCK8 assay. The data set is classed as toxicity, cell-based, HEK-293T. Particulars: human.
The nature of data set [3]: Selectivity index, ratio of IC50 for HEK293T cells to IC50 for erythrocytic stage of Plasmodium falciparum 3D7. Particulars: human, read-out: Ratio IC50. The data set is classed as toxicity, cell-based.
In data set [4] the test system is Plasmodium falciparum. Description: Antimalarial activity against sulfadoxine-pyrimethamine and mefloquine resistant Plasmodium falciparum clinical isolate CP286 assessed as inhibition of growth incubated for 72 hrs by SYBR green I based assay. Format: functional, organism-based.
Data set [5] deals with Plasmodium falciparum. Description: Inhibition of asynchronous ring stage Plasmodium falciparum 3D7 HDAC assessed as increase in histone H3 acetylation level at 20 times of IC50 concentration incubated for 2 hrs by Western blot analysis. Background: Immunoblotting shows a protein as a band on a membrane.
The target of data set [6] is Histone deacetylase 1 (Homo sapiens, UniProt Q13547). Briefly: Inhibition of recombinant human HDAC1 using Ac-peptide as substrate preincubated for 15 mins followed by substrate addition and measured after 60 mins.
The target in data set [7] is Histone deacetylase 2 (Homo sapiens, UniProt Q92769). Briefly: Inhibition of recombinant human HDAC2 using Ac-peptide as substrate preincubated for 15 mins followed by substrate addition and measured after 60 mins.
In data set [8] the target is Histone deacetylase 3 (Homo sapiens, UniProt O15379). Briefly: Inhibition of recombinant human HDAC3 using Ac-peptide as substrate preincubated for 15 mins followed by substrate addition and measured after 60 mins.
For data set [9], the target named is T1, Protein deacetylase HDAC6 (Homo sapiens, UniProt Q9UBN7).
T1 sequence (Q9UBN7 whole entry): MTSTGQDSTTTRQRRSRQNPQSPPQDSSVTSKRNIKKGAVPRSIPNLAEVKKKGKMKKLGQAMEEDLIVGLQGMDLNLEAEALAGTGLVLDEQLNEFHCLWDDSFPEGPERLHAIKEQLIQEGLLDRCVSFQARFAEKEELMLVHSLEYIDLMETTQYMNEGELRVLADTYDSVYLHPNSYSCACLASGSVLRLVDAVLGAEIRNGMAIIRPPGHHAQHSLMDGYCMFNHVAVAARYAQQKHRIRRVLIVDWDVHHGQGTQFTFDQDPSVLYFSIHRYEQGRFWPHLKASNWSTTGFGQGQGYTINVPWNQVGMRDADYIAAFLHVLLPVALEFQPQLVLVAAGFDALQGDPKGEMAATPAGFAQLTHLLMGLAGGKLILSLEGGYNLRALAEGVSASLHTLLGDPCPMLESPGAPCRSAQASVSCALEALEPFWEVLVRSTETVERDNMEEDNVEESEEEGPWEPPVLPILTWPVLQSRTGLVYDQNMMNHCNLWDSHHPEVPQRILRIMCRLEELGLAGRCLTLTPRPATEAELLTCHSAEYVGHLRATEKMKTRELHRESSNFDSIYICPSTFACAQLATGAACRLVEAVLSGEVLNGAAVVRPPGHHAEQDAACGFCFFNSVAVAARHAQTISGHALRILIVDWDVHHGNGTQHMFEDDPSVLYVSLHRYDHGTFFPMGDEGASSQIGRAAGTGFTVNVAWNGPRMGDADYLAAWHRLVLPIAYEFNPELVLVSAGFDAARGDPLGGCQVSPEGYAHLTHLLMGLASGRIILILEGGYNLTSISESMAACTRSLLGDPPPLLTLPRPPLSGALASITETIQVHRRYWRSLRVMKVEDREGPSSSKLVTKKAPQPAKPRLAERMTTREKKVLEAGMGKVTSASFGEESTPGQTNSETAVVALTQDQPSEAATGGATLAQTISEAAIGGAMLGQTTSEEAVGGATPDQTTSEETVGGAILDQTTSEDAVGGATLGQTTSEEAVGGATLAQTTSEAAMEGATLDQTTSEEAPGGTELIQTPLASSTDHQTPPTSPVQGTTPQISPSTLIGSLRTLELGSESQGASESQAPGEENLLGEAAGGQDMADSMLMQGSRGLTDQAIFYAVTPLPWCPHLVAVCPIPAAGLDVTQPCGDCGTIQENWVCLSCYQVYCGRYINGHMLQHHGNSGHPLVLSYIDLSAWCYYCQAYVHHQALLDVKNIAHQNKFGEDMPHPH
Briefly: Inhibition of recombinant human HDAC6 using Ac-peptide as substrate preincubated for 15 mins followed by substrate addition and measured after 60 mins.

For data set [10], the target named is T2, Histone deacetylase 8 (Homo sapiens, UniProt Q9BY41).
T2 sequence (Q9BY41 whole entry): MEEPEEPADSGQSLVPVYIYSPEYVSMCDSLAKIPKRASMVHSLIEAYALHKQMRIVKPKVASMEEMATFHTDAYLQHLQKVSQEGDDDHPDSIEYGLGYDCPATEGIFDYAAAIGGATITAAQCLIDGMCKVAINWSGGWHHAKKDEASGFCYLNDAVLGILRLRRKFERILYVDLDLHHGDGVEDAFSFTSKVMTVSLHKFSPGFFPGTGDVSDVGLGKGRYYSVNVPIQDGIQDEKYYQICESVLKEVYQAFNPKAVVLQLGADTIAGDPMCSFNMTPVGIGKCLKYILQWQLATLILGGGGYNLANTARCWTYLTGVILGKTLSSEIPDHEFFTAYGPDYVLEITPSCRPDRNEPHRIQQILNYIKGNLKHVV
Description: Inhibition of recombinant human HDAC8 using Ac-peptide as substrate preincubated for 15 mins followed by substrate addition for 240 mins and measured after 120 mins of trypsin addition.

Data set [11] addresses T3, NAD-dependent protein deacetylase sirtuin-2 (Homo sapiens, UniProt Q8IXJ6).
T3 sequence (Q8IXJ6 whole entry): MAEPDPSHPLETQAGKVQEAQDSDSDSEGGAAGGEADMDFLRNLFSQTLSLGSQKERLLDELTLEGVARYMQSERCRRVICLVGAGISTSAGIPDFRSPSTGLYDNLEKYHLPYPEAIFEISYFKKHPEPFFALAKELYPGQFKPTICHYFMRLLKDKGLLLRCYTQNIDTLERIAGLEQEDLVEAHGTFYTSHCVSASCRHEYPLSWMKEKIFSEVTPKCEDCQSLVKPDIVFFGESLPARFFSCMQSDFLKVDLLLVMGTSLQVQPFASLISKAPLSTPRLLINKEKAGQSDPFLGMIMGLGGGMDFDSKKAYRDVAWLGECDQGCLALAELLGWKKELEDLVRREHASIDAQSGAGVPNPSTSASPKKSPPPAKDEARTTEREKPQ
Briefly: Inhibition of recombinant human SIRT2 using Ac-peptide as substrate preincubated for 15 mins followed by substrate addition for 240 mins and measured after 120 mins of trypsin addition.

The nature of data set [12]: Metabolic stability in mouse liver microsomes assessed as half-life measured upto 45 mins in presence of NADPH by LC-MS/MS analysis. Format: ADME, Microsome. For orientation: Liver microsomes are vesicles of endoplasmic reticulum, rich in cytochrome P450 enzymes.
A short description of data set [13]: Metabolic stability in mouse liver microsomes assessed as clearance measured upto 45 mins in presence of NADPH by LC-MS/MS analysis. Format: ADME, Microsome. The note with it: read-out: CLH.
Data set [14] concerns Plasmodium yoelii. Description: Antimalarial activity against erythrocytic stage of Plasmodium yoelli infected in female mouse model assessed as reduction in parasitemia at 30 mg/kg, ip pre-infected with parasite followed by twice daily compound administration from day 3 to 6 by microscopic analysis. The note with it: time 4.0 day. Format: functional, organism-based.
Data set [15] can be described thus: Toxicity in female mouse model infected with erythrocytic stage of Plasmodium yoelli assessed as animal death at 30 mg/kg, ip pre-infected with parasite followed by twice daily compound administration from day 3 to 6. Format: organism-based. The note with it: in vivo, 96 h, time 4 day.
Data set [16] relates to Plasmodium falciparum. Briefly: microbe, parasite or virus in culture. Particulars: 3D7, 72 h.
Description: Antimalarial activity against erythrocytic stage of Plasmodium falciparum 3D7 assessed as inhibition of growth incubated for 72 hrs by SYBR green I based assay
Data set [17] deals with Plasmodium falciparum. Briefly: microbe, parasite or virus in culture. The note with it: Dd2, 72 h.
Description: Antimalarial activity against erythrocytic stage of chloroquine-resistant Plasmodium falciparum Dd2 assessed as inhibition of growth incubated for 72 hrs by SYBR green I based assay
The subject of data set [18] is Plasmodium falciparum. Briefly: microbe, parasite or virus in culture. Particulars: 72 h.
Description: Antimalarial activity against chloroquine resistant Plasmodium falciparum clinical isolate GB4 assessed as inhibition of growth incubated for 72 hrs by SYBR green I based assay
Data set [19] deals with Plasmodium falciparum. Description: microbe, parasite or virus in culture. Particulars: 72 h. The source holds these as a separate data set.
Description: Antimalarial activity against quinine and chloroquine resistant Plasmodium falciparum clinical isolate C2A assessed as inhibition of growth incubated for 72 hrs by SYBR green I based assay
Data set [20] is described as follows: Resistance index, ratio of IC50 for chloroquine resistant Plasmodium falciparum clinical isolate GB4 to IC50 for erythrocytic stage of Plasmodium falciparum 3D7. Format: functional.
The nature of data set [21]: Resistance index, ratio of IC50 for quinine and chloroquine resistant Plasmodium falciparum clinical isolate C2A to IC50 for erythrocytic stage of Plasmodium falciparum 3D7. The data set is classed as functional.
The nature of data set [22]: Resistance index, ratio of IC50 for sulfadoxine-pyrimethamine and mefloquine resistant Plasmodium falciparum clinical isolate CP286 to IC50 for erythrocytic stage of Plasmodium falciparum 3D7. The data set is classed as functional.
Data set [23] in a line: Selectivity index, ratio of IC50 for human HepG2 cells to IC50 for erythrocytic stage of Plasmodium falciparum 3D7. The note with it: read-out: Ratio IC50. Format: toxicity, cell-based.
The subject of data set [24] is Plasmodium yoelii. Briefly: Antimalarial activity against erythrocytic stage of Plasmodium yoelli infected in female mouse model assessed as reduction in parasitemia at 60 mg/kg, ip pre-infected with parasite followed by once daily compound administration from day 3 to 6 by microscopic analysis. The data set is classed as functional, organism-based. Particulars: time 4.0 day.

The nature of data set [25]: Toxicity in female mouse model at 150 mg/kg, ip administered as single dose. Format: organism-based. The note with it: in vivo.
A short description of data set [26]: Toxicity in female mouse model infected with erythrocytic stage of Plasmodium yoelli assessed as animal death at 30 mg/kg, ip pre-infected with parasite followed by […] compound administration from day 3 to 6. Particulars: in vivo, 96 h, time 4 day. The data set is classed as organism-based.
The nature of data set [27]: Tmax in female Balb/c mouse at 5 mg/kg, ip measured after 24 hrs by LC-MS/MS analysis. Format: ADME, organism-based. The note with it: in vivo.

Molecules are shown by their SMILES. Activity calls are given as the source filed them.

Broadly, the IC50 is the concentration needed to halve the response being measured. A word on the half-life: it is the time needed for the level to fall by half in the phase considered. As a reminder, the Tmax is the time at which the peak concentration occurs.

Histone deacetylase 2, sequence (Q92769 whole entry): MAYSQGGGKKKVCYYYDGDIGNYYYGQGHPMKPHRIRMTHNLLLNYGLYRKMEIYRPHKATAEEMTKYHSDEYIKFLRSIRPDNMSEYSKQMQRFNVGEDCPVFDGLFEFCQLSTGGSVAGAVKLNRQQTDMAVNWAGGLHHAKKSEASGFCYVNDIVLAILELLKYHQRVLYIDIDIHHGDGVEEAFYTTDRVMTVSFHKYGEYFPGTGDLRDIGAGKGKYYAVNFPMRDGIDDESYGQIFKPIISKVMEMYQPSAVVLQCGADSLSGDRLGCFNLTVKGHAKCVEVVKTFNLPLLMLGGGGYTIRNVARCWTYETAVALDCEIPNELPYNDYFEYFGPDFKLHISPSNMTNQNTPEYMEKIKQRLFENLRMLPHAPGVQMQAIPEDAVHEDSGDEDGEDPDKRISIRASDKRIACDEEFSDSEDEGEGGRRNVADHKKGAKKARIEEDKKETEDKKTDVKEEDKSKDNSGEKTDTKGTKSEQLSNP
Histone deacetylase 3, sequence (O15379 whole entry): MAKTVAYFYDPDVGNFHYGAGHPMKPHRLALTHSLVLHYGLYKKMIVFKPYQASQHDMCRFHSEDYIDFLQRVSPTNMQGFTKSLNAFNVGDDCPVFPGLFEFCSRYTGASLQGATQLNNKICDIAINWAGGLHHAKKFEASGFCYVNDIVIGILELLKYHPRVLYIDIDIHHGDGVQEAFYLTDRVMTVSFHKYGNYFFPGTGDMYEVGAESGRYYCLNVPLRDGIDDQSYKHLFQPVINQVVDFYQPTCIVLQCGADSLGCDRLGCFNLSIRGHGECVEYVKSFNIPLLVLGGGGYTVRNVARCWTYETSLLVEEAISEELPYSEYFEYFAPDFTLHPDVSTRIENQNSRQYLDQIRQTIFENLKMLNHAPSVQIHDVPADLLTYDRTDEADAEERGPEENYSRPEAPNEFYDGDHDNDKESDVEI
Histone deacetylase 1, sequence (Q13547 whole entry): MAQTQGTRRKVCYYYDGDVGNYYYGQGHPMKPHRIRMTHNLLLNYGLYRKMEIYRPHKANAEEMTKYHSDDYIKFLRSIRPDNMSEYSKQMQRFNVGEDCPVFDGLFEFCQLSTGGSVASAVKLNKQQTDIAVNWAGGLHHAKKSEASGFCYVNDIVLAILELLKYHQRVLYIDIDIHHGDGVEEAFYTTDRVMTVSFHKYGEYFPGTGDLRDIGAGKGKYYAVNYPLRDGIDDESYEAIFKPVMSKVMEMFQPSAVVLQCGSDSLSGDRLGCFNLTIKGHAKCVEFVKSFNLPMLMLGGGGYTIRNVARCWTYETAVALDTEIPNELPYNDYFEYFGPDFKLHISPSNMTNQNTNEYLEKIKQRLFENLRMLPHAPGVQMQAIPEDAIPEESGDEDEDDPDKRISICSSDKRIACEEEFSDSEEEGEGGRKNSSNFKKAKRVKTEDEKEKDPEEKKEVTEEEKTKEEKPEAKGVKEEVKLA

Consider `COc1ccc2c(CN[C@H]3CC[C@@H](Nc4ncc(C(=O)NO)cn4)CC3)cn(C)c2c1.Cl`, for which the IC50 at 72 h in data set [1] was 12800 nM; in [2] it was greater than 10000 nM. The selectivity ratio in [3] was greater than 867. Further, the IC50 in data set [4] is 38.7 nM; in data set [6], 9.1 nM; in [7], 14 nM; in data set [8], 21 nM; in data set [9], 90 nM; in data set [10] it was 30 nM. The IC50 is greater than 10000 nM in data set [11]; 2.7 nM in data set [16]; 12.8 nM in data set [17]; 27.2 nM in [18]; 22.7 nM in [19]. The inhibition result in data set [5] was “Active”. The half-life in data set [12] came to 48 min. Further, the CLint scaled in [13] was 114 mL/min/kg. The results for the Activity result in data set [14] and in data set [15] were “Active; Only Slight Recurrence Of Parasitemia Was Observed Upon Cessation Of Treatment” and “Toxic”, respectively.
As to `CCc1nc(N)nc(N)c1-c1ccc(Cl)cc1` [PYRIMETHAMINE], the values for the 50% inhibitory concentration (IC50) in data set [4] and in [16] were greater than 50000 nM and 24.8 nM, respectively.
With `C[C@H]1[C@@H](O)O[C@@H]2O[C@@]3(C)CC[C@H]4[C@H](C)CC[C@@H]1[C@@]24OO3` [ARTENIMOL], the IC50 in [4] is 5.6 nM; in [16] it was 2.7 nM; in data set [17], 2.68 nM; in [18], 3.2 nM; in [19], 3.7 nM. Moreover, the Ratio IC50 stood at 1.2 in data set [20], 1.4 in data set [21] and 2.1 in data set [22].
For the molecule `O=C(NO)c1cnc(N[C@H]2CC[C@@H](NCc3coc4ccccc34)CC2)nc1`, the figures for the IC50 at 72 h in [1] and in data set [2] were 2580 nM and 3110 nM, respectively. For the same molecule, the figures for the selectivity ratio in data set [23] and in [3] were 51 and 61, respectively. In addition, the IC50 amounted to 50.8 nM in data set [16] and 35.5 nM in [17].
For `Cn1cc(CNCC2CCN(c3ncc(C(=O)NO)cn3)CC2)c2ccccc21` [QUISINOSTAT], in [5], the inhibition result was “Active”. In addition, the IC50 in data set [11] is greater than 10000 nM; in [16] it was 5.2 nM; in data set [18] it was 1.7 nM. In addition, the half-life in data set [12] came out at 13.3 min. Further, the Activity entry is “Not active; Mild Recurrence Of Parasitemia Post-Treatment Cessation Observed” in data set [14], “Active; Significant Recurrence Of Parasitemia Observed” in data set [24], “Toxic” in data set [25] and “Toxic” in [26]. Further, the Tmax in data set [27] was 4.98 min.
On to `O=C(NO)c1cnc(N[C@H]2CC[C@@H](NCc3cc4ccccc4s3)CC2)nc1`, for which the concentration for half-maximal inhibition (IC50) at 72 h in data set [1] came to 1440 nM; in [2] it was 2380 nM. The selectivity ratio was 66 in [23] and 109 in data set [3]. For the same molecule, the values for the IC50 in data set [16] and in data set [17] were 21.8 nM and 26.4 nM, respectively.
As for `O=C(NO)c1cnc(N[C@H]2CC[C@@H](NCc3csc4ccccc34)CC2)nc1`, the values for the IC50 at 72 h in [1] and in [2] were 1360 nM and 1940 nM, respectively. Further, the selectivity ratio in [23] is 54; in data set [3], 77. The IC50 in data set [16] worked out at 25.3 nM; in data set [17] it was 34.8 nM.
Consider `O=C(NO)c1cnc(N[C@H]2CC[C@@H](NCc3ccc4ccc5cccc6ccc3c4c56)CC2)nc1`, for which the IC50 at 72 h in [1] came to 2130 nM; in [2] it was 2640 nM. For the same molecule, the figures for the selectivity ratio in [23] and in [3] were 70 and 87, respectively. Further, the IC50 came to 30.3 nM in data set [16] and 28.8 nM in data set [17].

The record behind these values is ChEMBL document CHEMBL6096636 (Bioorg Med Chem, 2024).
